Assays:
DNA-PK = target: T1, DNA-PK (Homo sapiens, UniProt P78527); assay: DNA-PK Assay for Biochemical Enzymatic Inhibition (ADP Glo Kinase assay); details: Table 1
T1 construct: purchased Invitrogen PR9107A
Method in brief: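 Human DNA-PK (25 ng) preincubated 15 min with compounds (ten three-fold dilutions) in HEPES pH 7.5, MgCl2, KCl, calf thymus DNA buffer, then substrate 434.4 μM and ATP 64.4 μM (final) for 60 min at room temperature. ADP-Glo luminescence; percent inhibition fitted by four-parameter regression for IC50.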

[1] = Hepatocyte stability assay, human hepatocytes; format: in vitro ADME; details: for hepatocyte CLint at 1 uM: both sexes, human, cryopreserved hepatocytes, pH 7.3, 0.7 million cells per mL, 1 uM compound
Method in brief: (§1)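 Pooled cryopreserved hepatocytes (male CD-1 mouse, or mixed-gender human donors; ≥10 each) at 0.7 million viable cells/mL in Krebs-Henseleit buffer pH 7.3, with 1 uM compound (≤0.01% DMSO). Incubated up to 2 h at 37 °C/5% CO2, quenched with acetonitrile; parent compound followed by HPLC-MS/MS peak area.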

[2] = Hepatocyte stability assay, mouse hepatocytes; format: in vitro ADME; details: for hepatocyte CLint at 1 uM: male, CD-1, mouse, cryopreserved hepatocytes, pH 7.3, 0.7 million cells per mL, 1 uM compound
Method in brief: as §1

[3] = Microsomal stability assay, human liver microsomes; format: in vitro ADME; details: for microsomal CLint at 0.1 uM: both sexes, human, liver microsomes, pH 7.4, 0.1 mg/mL microsomes, 0.1 uM compound
Method: Samples were then mixed and centrifuged. Supernatants were used for HPLC-MS/MS analysis. […] Peak areas corresponding to the test compound were recorded.

[4] = Microsomal stability assay, mouse liver microsomes; details: for microsomal CLint at 0.1 uM: male, CD-1, mouse, liver microsomes, pH 7.4, Microsomal Stability Mouse Clint, 0.1 mg/mL microsomes, 0.1 uM compound

| SMILES | IC50 (DNA-PK) [pM] | Hepatocyte Stability (human) % rem. 120 min [1] | hepatocyte CLint at 1 uM [1] [µL/min/1e6 cells] | Hepatocyte Stability (mouse) % rem. 120 min [2] | hepatocyte CLint at 1 uM [2] [µL/min/1e6 cells] | Microsomal Stability (human) % rem. 60 min [3] | microsomal CLint at 0.1 uM [3] [µL/min/mg] | Microsomal Stability (mouse) % rem. 60 min [4] | microsomal CLint at 0.1 uM [4] [µL/min/mg] |
| --- | --- | --- | --- | --- | --- | --- | --- | --- | --- |
| Cn1cnc2cnc(N[C@H]3CC[C@@H](Oc4nc(N5CCOCC5)cc5ncccc45)CC3)nc21 [Compound 88, 9-Methyl-N-((1s,4s)-4-((7-morpholino-1,6-naphthyridin-5-yl)oxy)cyclohexyl)-9H-purin-2-amine] | 500 to 1000 | E (% remaining = 0-25%) | > 8.2 | E (% remaining = 0-25%) | > 8.2 | – | – | – | – |
| c1cnc2cc(N3CCOCC3)nc(O[C@H]3CC[C@@H](Nc4ccn5nccc5n4)CC3)c2c1 [Compound 89, N-((1s,4s)-4-((7-Morpholino-1,6-naphthyridin-5-yl)oxy)cyclohexyl)pyrazolo[1,5-a]pyrimidin-5-amine] | 500 to 1000 | G (% remaining = 50-75%) | < 8.2 | F (% remaining = 25-50%) | > 8.2 | – | – | – | – |
| O=C(N[C@H]1CC[C@@H](Oc2nc(N3CCOCC3)cc3ncccc23)CC1)c1ccnnc1 [Compound 121, N-((1s,4s)-4-((7-morpholino-1,6-naphthyridin-5-yl)oxy)cyclohexyl)pyridazine-4-carboxamide] | 500 to 1000 | G (% remaining = 50-75%) | < 8.2 | G (% remaining = 50-75%) | < 8.2 | G (% remaining = 50-75%) | < 116 | H (% remaining = 75-100%) | < 116 |
| O=C(N[C@H]1CC[C@@H](Oc2nc(N3CCOCC3)cc3ncccc23)CC1)c1cc[nH]c1 [Compound 140, N-((1s,4s)-4-((7-morpholino-1,6-naphthyridin-5-yl)oxy)cyclohexyl)-1H-pyrrole-3-carboxamide] | < 500 | H (% remaining = 75-100%) | < 8.2 | G (% remaining = 50-75%) | < 8.2 | F (% remaining = 25-50%) | > 116 | G (% remaining = 50-75%) | < 116 |
| O=C(N[C@H]1CC[C@@H](Oc2nc(N3CCOCC3)cc3ncccc23)CC1)c1ncco1 [Compound 142, N-((1s,4s)-4-((7-morpholino-1,6-naphthyridin-5-yl)oxy)cyclohexyl)oxazole-2-carboxamide] | 500 to 1000 | H (% remaining = 75-100%) | < 8.2 | F (% remaining = 25-50%) | > 8.2 | F (% remaining = 25-50%) | > 116 | G (% remaining = 50-75%) | < 116 |
| O=C(N[C@H]1CC[C@@H](Oc2nc(N3CCOCC3)cc3ncccc23)CC1)c1c[nH]cn1 [Compound 144, N-((1s,4s)-4-((7-morpholino-1,6-naphthyridin-5-yl)oxy)cyclohexyl)-1H-imidazole-4-carboxamide] | 500 to 1000 | H (% remaining = 75-100%) | < 8.2 | H (% remaining = 75-100%) | < 8.2 | G (% remaining = 50-75%) | < 116 | G (% remaining = 50-75%) | < 116 |
| COc1cnc(N[C@H]2CC[C@@H](Oc3nc(N4CCOCC4)cc4ncc(NS(C)(=O)=O)cc34)CC2)nc1 [Compound 203, N-(5-(((1s,4s)-4-((5-methoxypyrimidin-2-yl)amino)cyclohexyl)oxy)-7-morpholino-1,6-naphthyridin-3-yl)methanesulfonamide] | < 500 | G (% remaining = 50-75%) | < 8.2 | F (% remaining = 25-50%) | < 8.2 | – | – | – | – |
| CS(=O)(=O)Nc1cnc2cc(N3CCOCC3)nc(O[C@H]3CC[C@@H](NC(=O)c4ncco4)CC3)c2c1 [Compound 205, N-((1s,4s)-4-((3-(methylsulfonamido)-7-morpholino-1,6-naphthyridin-5-yl)oxy)cyclohexyl)oxazole-2-carboxamide] | 500 to 1000 | H (% remaining = 75-100%) | < 8.2 | H (% remaining = 75-100%) | < 8.2 | – | – | – | – |

More lines, now with the values ahead:

| IC50 (DNA-PK) [pM] | Hepatocyte Stability (human) % rem. 120 min [1] | hepatocyte CLint at 1 uM [1] [µL/min/1e6 cells] | Hepatocyte Stability (mouse) % rem. 120 min [2] | hepatocyte CLint at 1 uM [2] [µL/min/1e6 cells] | Microsomal Stability (human) % rem. 60 min [3] | microsomal CLint at 0.1 uM [3] [µL/min/mg] | Microsomal Stability (mouse) % rem. 60 min [4] | microsomal CLint at 0.1 uM [4] [µL/min/mg] | SMILES |
| --- | --- | --- | --- | --- | --- | --- | --- | --- | --- |
| < 500 | E (% remaining = 0-25%) | > 8.2 | F (% remaining = 25-50%) | > 8.2 | – | – | – | – | c1cnc2cc(N3CCOCC3)nc(O[C@H]3CC[C@@H](Nc4ncnc5ccsc45)CC3)c2c1 [Compound 83, N-((1s,4s)-4-((7-morpholino-1,6-naphthyridin-5-yl)oxy)cyclohexyl)thieno[3,2-d]pyrimidin-4-amine] |
| < 500 | F (% remaining = 25-50%) | > 8.2 | F (% remaining = 25-50%) | > 8.2 | – | – | – | – | c1cnc2cc(N3CCOCC3)nc(O[C@H]3CC[C@@H](Nc4ncc5sccc5n4)CC3)c2c1 [Compound 84, N-((1s,4s)-4-((7-Morpholino-1,6-naphthyridin-5-yl)oxy)cyclohexyl)thieno[3,2-d]pyrimidin-2-amine] |
| < 500 | E (% remaining = 0-25%) | > 8.2 | E (% remaining = 0-25%) | > 8.2 | – | – | – | – | c1cnc2cc(N3CCOCC3)nc(O[C@H]3CC[C@@H](Nc4ncc5[nH]ccc5n4)CC3)c2c1 [Compound 85, N-((1s,4s)-4-((7-Morpholino-1,6-naphthyridin-5-yl)oxy)cyclohexyl)-5H-pyrrolo[3,2-d]pyrimidin-2-amine] |
| < 500 | G (% remaining = 50-75%) | < 8.2 | F (% remaining = 25-50%) | > 8.2 | – | – | – | – | Cn1ccc2nc(N[C@H]3CC[C@@H](Oc4nc(N5CCOCC5)cc5ncccc45)CC3)ncc21 [Compound 87, 5-Methyl-N-((1s,4s)-4-((7-morpholino-1,6-naphthyridin-5-yl)oxy)cyclohexyl)-5H-pyrrolo[3,2-d]pyrimidin-2-amine] |
| < 500 | G (% remaining = 50-75%) | < 8.2 | G (% remaining = 50-75%) | < 8.2 | F (% remaining = 25-50%) | > 116 | F (% remaining = 25-50%) | > 116 | O=C(N[C@H]1CC[C@@H](Oc2nc(N3CCOCC3)cc3ncccc23)CC1)c1ccncc1 [Compound 113, N-((1s,4s)-4-((7-morpholino-1,6-naphthyridin-5-yl)oxy)cyclohexyl)isonicotinamide] |

— patent US20240246960A1 (adMare Therapeutics Society, priority 2021, published 2024)
